Assay results as given in patent publication US8546419B2, “Dual phase drug release system” (priority 2003, dated 2013).
pEC50, pIC50: −log10 of the molar value. Where two headings read alike, the source gives them in different places.

Columns and labels:
[1] = Hydrolytic stability and CPT release in aqueous media / phosphate buffered saline (RP HPLC); assay type: physicochemical
Procedure: The second stage hydrolysis of CPT-SI was investigated analogously.
Using procedures analogous to the described above, CPT release from these conjugates was investigated in phosphate buffered saline as described above. The conjugates were also tested for cytotoxicity in HT29 cell culture.

[2] = Procedure: The resultant suspension was diluted to 150 ml and extracted with methylene chloride (3×150 ml). Methylene chloride layers were combined, washed with 0.01 N HCl, and dried over magnesium sulfate. Solvent was removed in vacuum.
HT29 cell culture = experiment: Cytotoxicity of CPT derivatives, MTT assay; assay type: cell-based, human; conditions: HT-29 cell culture, 72 hours post treatment, read-out: ID50, growth inhibition
Procedure: Human colorectal adenocarcinoma HT-29 cell culture was from ATCC (ATCC HTB-38).
Cytotoxicity of CPT derivatives was investigated in HT29 cell culture. Cells were grown in McCoy's 5a medium with 1.5 mM L-glutamine supplemented with 10% FBS.

HT-29 xenograft = assay type: in vivo; conditions: HT29 model; for time of tumor growth from 0.10-0.15 cm^3 to 1.5 cm^3: 22.5 mg/kg, untreated control 24 days
Procedure: Camptothecin and CPT-SI (the first phase release product) were used as controls.
Cells were injected subcutaneously into the left flank, 10^6 cells per animal in 50 μl. […] Animals of the first three groups received the respective experimental substance via the tail vein in five doses every three days (5xq3D). […] CPT and CPT-SI were administered as dispersions in Tween 80/water (9/1 v/v). Animal weight, tumor size, animal appearance, behavior, and survival rate were monitored for four weeks after administration. Weight loss over 20% and tumor growth over 1500 mm^3 were counted as lethalities (animals were euthanized).
The latter were administered as Cremofor® emulsions.

in vivo = conditions: mouse
Procedure: The toxicity of CPT was evaluated in normal outbred mice, as well as in xenograft bearing nude athymic animals in the course of antineoplastic activity studies.

[3] = system: HT-29 human colorectal carcinoma cells; experiment: Cell growth inhibition in vitro by Taxol preparations; assay type: cell-based; conditions: HT-29 cells, conjugate with Taxol content of 13%, read-out: ED50, cell growth inhibitory efficacy
Procedure: PHF-SAG-Taxol conjugate synthesis was carried out on a 2-gram scale, at ambient temperature, pH 5.5-6.0. […] The PHF-SAG-Taxol was purified of low molecular weight impurities by gel filtration on G25 Sefadex column equilibrated with DI water, and recovered by lyophilyzation. […] Stability of PHF-Taxol conjugates in aqueous media was monitored by HPLC.

**Q.** For “1,1-Dimethylsuccinic Acid-Linked PHF-CPT [PHF-DMSA-CPT]”, which CPT half-release time ([1]; PBS at pH 7.47/37° C., first phase release) is on record?
**A.** Its CPT half-release time is 0.6 h.

**Q.** And the “solubility (in words)” value [2]?
**A.** Its value is “soluble in water, saline and polar organic solvents”.

**Q.** With `CC[C@@]1(O)C(=O)OCc2c1cc1n(c2=O)Cc2cc3ccccc3nc2-1` [CPT, camptothecin, reference compound] as the compound, how does the pIC50 (HT29 cell culture; Homo sapiens) read?
**A.** The pIC50 was 7.77.

**Q.** What about the “time of tumor growth from 0.10-0.15 cm^3 to 1.5 cm^3” value (HT-29 xenograft) of the same compound?
**A.** The value was 40 days.

**Q.** And the MTD (in vivo)?
**A.** Its MTD is 9 to 10 mg/kg.

**Q.** With `CCc1c2c(nc3ccc(OC(=O)N4CCC(N5CCCCC5)CC4)cc13)-c1cc3c(c(=O)n1C2)COC(=O)[C@]3(O)CC` [Irinotecan] as the compound, how does the MTD (in vivo) read?
**A.** The MTD was 9 to 10 mg/kg.

**Q.** With `CC(=O)O[C@H]1C(=O)[C@@]2(C)[C@H]([C@H](OC(=O)c3ccccc3)[C@]3(O)C[C@H](OC(=O)[C@H](O)[C@@H](NC(=O)c4ccccc4)c4ccccc4)C(C)=C1C3(C)C)[C@]1(OC(C)=O)CO[C@@H]1C[C@@H]2O` [Taxol] as the compound, how does the pEC50 [3] read?
**A.** The pEC50 was 7.82.

**Q.** Which “half-time of subsequent (second stage) hydrolysis” value ([1]; depending on the conditions) does the source give for “Camptothecin-20-(N-succinimidoglycinate) [CPT-SI]” here?
**A.** The value was “over 20 hrs”.

**Q.** And the pIC50 (HT29 cell culture)?
**A.** The pIC50 was 7.47.

**Q.** What about the “effect on tumor dynamics” value (HT-29 xenograft) of the same compound?
**A.** Its value is “no significant effect on tumor dynamics”.

**Q.** What about the “time of tumor growth from 0.10-0.15 cm^3 to 1.5 cm^3” value (HT-29 xenograft) of the same compound?
**A.** Its value is 27 days.

**Q.** What about the solubility in water [2] of the same compound?
**A.** The solubility in water was less than 1.0 µg/mL.
